Changes are numbered by the printed parent chain.
T1: ELIP2 (Arabidopsis thaliana, UniProt Q94K66)
T1 construct: PCC 6803 GT-P, DDM-solubilized, monomeric
T1 sequence (Q94K66 44-193): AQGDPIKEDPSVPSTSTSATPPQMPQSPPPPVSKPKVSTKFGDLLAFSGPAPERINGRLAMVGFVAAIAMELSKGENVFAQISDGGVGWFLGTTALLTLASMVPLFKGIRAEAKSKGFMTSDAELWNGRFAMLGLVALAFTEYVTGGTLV

T2: LIL3 (LIL3.1) (Arabidopsis thaliana, UniProt Q9SYX1, N177A)
T2 construct: PCC 6803 GT-P, DDM-solubilized, dimer
T2 sequence (Q9SYX1 40-262 N177A): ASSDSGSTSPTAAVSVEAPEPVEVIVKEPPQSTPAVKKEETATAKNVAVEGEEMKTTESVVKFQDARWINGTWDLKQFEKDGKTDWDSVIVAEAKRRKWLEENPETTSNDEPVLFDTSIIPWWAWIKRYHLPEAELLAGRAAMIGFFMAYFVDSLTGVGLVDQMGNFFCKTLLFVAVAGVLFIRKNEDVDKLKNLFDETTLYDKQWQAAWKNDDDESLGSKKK

T3: LIL3 (LIL3.1) (Arabidopsis thaliana, UniProt Q9SYX1)
T3 construct: PCC 6803 GT-P, DDM-solubilized, dimer
T3 sequence (Q9SYX1 40-262): T2 sequence (Q9SYX1 40-262 N177A) with A138N

T4: LIL3 (LIL3.1) (Arabidopsis thaliana, UniProt Q9SYX1, N177D)
T4 construct: PCC 6803 GT-P, DDM-solubilized, dimer
T4 sequence (Q9SYX1 40-262 N177D): T2 sequence (Q9SYX1 40-262 N177A) with A138D

B1: LIGHT-HARVESTING-LIKE 3 protein LIL3.1 from Arabidopsis, 8xHis-tagged, without the predicted signal sequence (natural protein, UniProt Q9SYX1 40-262, looked up)
chain: T2 sequence (Q9SYX1 40-262 N177A) with A138N
notes: printed mass 25.1 KDa; Cloned into the pPD-NFLAG plasmid by NdeI and BglII with 8xHis added by the forward primer; From the wild type background it carries Chl and zeaxanthin; from ZEP^+ and xant^- it is (almost) colourless; also called LIL3[2]; LIL3 (ZEP^+); source: Synechocystis sp; PCC 6803 (psbAII promoter; wild type, ZEP^+ or xant^- background), purified from DDM-solubilized membranes …

Key:
ELIP2 = target: T1, ELIP2; test: co-purification (Ni-NTA, sucrose gradient), SEC, HPLC pigment analysis; assay type: binding; details: pH 6.5, 0.03% DDM, 15 °C
LIL3 (LIL3.1) [1] = target: T2, LIL3 (LIL3.1); test: co-purification; pigment colour of the purified protein; assay type: binding; details: DDM-solubilized
LIL3 (LIL3.1) [2] = target: T3, LIL3 (LIL3.1); test: co-purification (Ni-NTA, sucrose gradient), CN-PAGE, SEC, HPLC pigment analysis; assay type: binding; details: dimer; pH 6.5, 0.03% DDM, 15 °C
LIL3 (LIL3.1) [3] = target: T4, LIL3 (LIL3.1); test: co-purification, 2D CN/SDS-PAGE; assay type: binding; details: DDM-solubilized
[4] = target: the molecule itself; test: native gel or EMSA; 2D clear native/SDS-PAGE (4-14% CN gel, DDM) of LIL3 purified from the wild type background, pigmented; Coomassie stain; mass judged against Synechocystis membrane complexes with a detergent belt assumed

Molecule	co-purification (Ni-NTA, sucrose gradient), SEC, HPLC pigment analysis (ELIP2)	no binding (LIL3 (LIL3.1) [1])	co-purification (Ni-NTA, sucrose gradient), CN-PAGE, SEC, HPLC pigment analysis (LIL3 (LIL3.1) [2])	no binding (LIL3 (LIL3.1) [3])	stoichiometry N [4]
CC1=C(/C=C/C(C)=C/C=C/C(C)=C/C=C/C=C(C)/C=C/C=C(C)/C=C/C2=C(C)CCCC2(C)C)C(C)(C)CCC1 [β-Car]	Pigments co-isolated with ELIP2 consisted of Zea, Chl, and β-Car	–	–	–	–
CC1=C(/C=C/C(C)=C/C=C/C(C)=C/C=C/C=C(C)/C=C/C=C(C)/C=C/C2=C(C)C[C@@H](O)CC2(C)C)C(C)(C)C[C@H](O)C1 [Zea, zeaxanthin]	Pigments co-isolated with ELIP2 consisted of Zea, Chl, and β-Car	(LIL3-N177A and LIL3-N177D) were purified from Synechocystis as completely colourless proteins	Pigments extracted from the LIL3 SEC fraction contained Zea and Chl	showing that the N177D mutation abolishes pigment binding	–
B1	–	–	–	–	2

— paper PMC8617258, “Plant LHC-like proteins show robust folding and static non-photochemical quenching” (Nature Communications, 2021)
